Laboratory results from patent publication US9963703B2, “Compositions and methods for treating pancreatic cancer” (Autotelic LLC, priority 2016, dated 2018).

Tests used:
TGFβ2 [1] = test: TGFβ2 secretion/expression in HUP-T3 pancreatic cancer cells; format: cell-based
From the text: (§1) The aim of the study was to determine the effect of AP12009 (trabedersen) treatment in combination with 5-Fluorouracil (5-FU) on TGFβ2 secretion and on cellular proliferation of HUP-T3 pancreatic cancer cells and WiDr colon cancer cells in vitro.

[2] = system: HUP-T3 pancreatic cancer cells; test: Cellular proliferation of HUP-T3 pancreatic cancer cells in vitro; details: HUP-T3; treatment on day 1 for 5 h; measured after 7 days
From the text: as §1

WiDr colon cancer cells = test: Cellular proliferation of WiDr colon cancer cells in vitro; format: cell-based; details: treatment on day 1 for 5 h only
From the text: as §1

TGFβ2 [3] = test: TGFβ2 secretion/expression in WiDr colon cancer cells; format: cell-based
From the text: as §1

O=c1[nH]cc(F)c(=O)[nH]1 [5-FU, 5-Fluorouracil, reference compound] was tested, and the “5-FU concentrations at which TGFβ2 was suppressed” value (TGFβ2 [1]) was > 75 µM, the “5-FU concentrations that dose-dependently reduced cell proliferation” value [2] was > 10 µM and the “5-FU concentrations that concentration-dependently reduced cell proliferation” value (WiDr colon cancer cells) was > 38 µM. For the same molecule, the “5-FU concentrations at which TGFβ2 was suppressed” value (TGFβ2 [3]) was > 75 µM.
